Assay results published in PubChem BioAssay (NCI).
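Following 48 hours of exposure in 96-well plates, responses at five concentrations were used to interpolate endpoints linearly. The concentration for 50% growth inhibition is given as GI50. TGI is the concentration that stops growth completely.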

Tests used:
Experiment in all cases: NCI-60 cell line screen, 48 h
HCC-2998 colon = tested on: HCC-2998 colon
SF-295 CNS = tested on: SF-295 CNS
SNB-75 CNS = tested on: SNB-75 CNS
786-0 renal = tested on: 786-0 renal
CCRF-CEM leukemia = tested on: CCRF-CEM leukemia
COLO 205 colon = tested on: COLO 205 colon
NCI/ADR-RES ovarian = tested on: NCI/ADR-RES ovarian
SNB-19 CNS = tested on: SNB-19 CNS
UO-31 renal = tested on: UO-31 renal
UACC-62 melanoma = tested on: UACC-62 melanoma

| SMILES | GI50 (HCC-2998 colon) [µM] | TGI (HCC-2998 colon) [µM] | GI50 (SF-295 CNS) [µM] | TGI (SF-295 CNS) [µM] | GI50 (SNB-75 CNS) [µM] | TGI (SNB-75 CNS) [µM] | GI50 (786-0 renal) [µM] | TGI (786-0 renal) [µM] | GI50 (CCRF-CEM leukemia) [µM] | TGI (CCRF-CEM leukemia) [µM] | GI50 (COLO 205 colon) [µM] | GI50 (NCI/ADR-RES ovarian) [µM] | TGI (NCI/ADR-RES ovarian) [µM] | GI50 (SNB-19 CNS) [µM] | TGI (SNB-19 CNS) [µM] | GI50 (UO-31 renal) [µM] | TGI (UO-31 renal) [µM] | TGI (UACC-62 melanoma) [µM] | TGI (COLO 205 colon) [µM] | GI50 (UACC-62 melanoma) [µM] |
| --- | --- | --- | --- | --- | --- | --- | --- | --- | --- | --- | --- | --- | --- | --- | --- | --- | --- | --- | --- | --- |
| CN1CCN(C(=O)C(C)(C)c2ccc(C(=O)Nc3cn4cc(-c5ccncc5)ccc4n3)cc2)CC1 | 0.502 | 9.7 | 0.482 | 30.8 | 0.167 | 1.57 | 0.539 | > 100 | 0.28 | > 100 | 0.289 | 0.917 | > 100 | 0.239 | > 100 | 0.272 | 1.3 | – | – | – |
| O=C1CCCCCCCCCCC1CN1CCCC1 (configuration not stated) | – | 70.6 | – | 86.3 | – | > 100 | – | 44.7 | – | > 100 | – | – | > 100 | – | > 100 | – | > 100 | 36.7 | 51.9 | – |
| Cn1ncnc1[C@H]1c2n[nH]c(=O)c3cc(F)cc(c23)N[C@@H]1c1ccc(F)cc1 | > 100 | > 100 | 0.44 | > 19.9 | 15.1 | > 100 | > 100 | > 100 | 1.27 | > 100 | > 100 | > 100 | > 100 | 22.8 | > 100 | 6.5 | > 100 | > 100 | > 100 | > 100 |
| COc1ccc2c(c1)NC1=C(C(=O)OC1)C2c1cc(OC)c2c(c1)OCO2 (configuration not stated) | 0.0297 | – | < 0.0155 | > 100 | 0.0426 | 43.3 | 0.032 | > 100 | < 0.0187 | > 100 | < 0.0135 | < 0.0165 | – | 0.0519 | > 100 | – | > 100 | > 100 | 0.0305 | < 0.0156 |
| COc1ccc2c(CN3CCCC[C@H]3C(=O)O)cc3cc4c(cc3c2c1)OCO4 | 3.56 | > 100 | 0.622 | 3.53 | 0.397 | 2.28 | 6.71 | > 100 | 2.94 | 13.5 | 0.494 | 7.11 | 65.7 | 1.59 | 5.74 | – | – | 2.34 | 2.88 | 1.02 |
| CN(C)CCN1C(=O)c2c(c3c4ccccc4n4c3c3c2c2ccccc2n3C2CC(O)C(O)C4(C)O2)C1=O (configuration not stated) | 3.93 | 10.6 | 1.45 | 16.6 | 1.41 | 8.29 | 1.93 | 8.37 | 1.59 | 14.4 | 1.23 | 8.2 | 23.3 | 1.58 | 11.8 | 1.71 | 13.9 | 3.93 | 7.1 | 0.767 |
| O=c1cnn(C2OC(CO)C(O)C2O)c(=S)[nH]1 (configuration not stated) | – | > 100 | – | > 100 | – | > 100 | – | > 100 | – | > 100 | – | – | > 100 | – | > 100 | – | > 100 | > 100 | > 100 | – |
| CC(C)(C)C(=O)OCC1C(=O)OCC1C(=O)N1Cc2cc3ccccc3nc2C1 (configuration not stated) | – | 29.3 | – | 27.4 | – | 19.9 | – | 7.69 | – | 5.89 | – | – | 18.9 | – | 38.6 | – | 7.99 | 15.7 | 2.41 | – |
| Nc1ncnc2c1N=C(c1ccc3c(c1)OCO3)CC(c1ccc([N+](=O)[O-])cc1)N2 (configuration not stated) | 66.1 | > 100 | 64.2 | > 100 | 39.4 | > 100 | 79.1 | > 100 | – | – | 92 | 55.4 | > 100 | 84.9 | > 100 | 18.1 | > 100 | > 100 | > 100 | 76.9 |
| Cc1cc2c(C(C)C)c(O)c(O)cc2c(O)c1-c1c(C)cc2c(C(C)C)c(O)c(O)cc2c1O | 16.4 | 30 | 22.5 | 58 | 24.5 | 60 | 16.7 | 33.9 | 3.91 | 21.5 | 3.84 | 20.7 | 48.9 | 14.9 | 35.6 | 14.9 | 29.1 | 14.3 | 15 | 2.32 |
| O=C1NC(Nc2ccccc2)=NC(C(F)(F)F)(C(F)(F)F)N1 | – | > 100 | – | > 100 | – | 87.6 | – | > 100 | – | > 100 | – | – | > 100 | – | – | – | > 100 | > 100 | > 100 | – |
| COc1cc2nc(N3CCCC3)nc(NCc3ccccc3)c2cc1OC | 2.13 | 4.25 | 1.84 | 3.46 | 1.69 | 5.38 | 1.65 | 3.07 | 2.55 | 8.07 | 1.45 | 3.71 | 18.7 | 5.05 | 17.7 | 1.38 | 3.21 | 5.39 | 3.14 | 2.28 |
| O=C(C/C(=N/O)C(=O)NC1=C(Cl)C(=O)c2ccccc2C1=O)CC(c1ccccc1)c1c(O)c2ccccc2oc1=O (configuration not stated) | – | 25.6 | – | 22.8 | – | 19 | – | > 100 | – | > 100 | – | – | > 100 | – | > 100 | – | 44.5 | > 100 | 33.7 | – |
| COc1ccc(C/C(C)=C(/c2ccc(OCCN3CCCCC3)cc2)c2ccc(OC(=O)NCc3ccccc3)cc2)cc1 | 0.435 | 0.797 | 0.436 | 0.802 | 0.355 | 0.716 | 0.316 | 0.674 | 0.523 | 1.55 | 0.437 | 0.443 | 0.893 | 0.459 | 0.852 | 0.34 | 0.669 | 0.817 | 0.9 | 0.455 |
| C#CC#CC#CC#CC#CC#CC#CC#CCC1OCC(COC(=O)O[C@@H](C(=O)O[C@H]2C[C@@]3(O)[C@@H](OC(=O)c4ccccc4)[C@@H]4[C@]5(OC(C)=O)CO[C@@H]5C[C@H](O)[C@@]4(C)C(=O)[C@H](OC(C)=O)C(=C2C)C3(C)C)[C@@H](NC(=O)c2ccccc2)c2ccccc2)O1 (some centres not stated) | 0.287 | > 33.3 | 0.581 | > 11.6 | 0.0244 | 0.189 | 2.15 | > 33.3 | 0.191 | > 33.3 | 0.103 | > 33.3 | > 33.3 | 0.612 | > 33.3 | > 33.3 | > 33.3 | > 33.3 | > 26.8 | 0.511 |
| C=CCN=C(N/N=C/c1ccc([N+](=O)[O-])o1)NS(=O)(=O)c1cc(C(=O)Nc2ccc(Cl)cc2)c(Cl)cc1SC | 2.29 | 5.96 | > 100 | > 100 | > 100 | > 100 | 6.94 | > 100 | 4.81 | > 100 | – | > 100 | > 100 | > 100 | > 100 | > 49.9 | > 100 | > 27.7 | > 100 | 2.81 |
| CC(=O)N1CC(C)(C)c2c(C)c(O)c(C)c(C)c21 | – | > 100 | – | > 100 | – | > 100 | – | > 100 | – | > 100 | – | – | > 100 | – | > 100 | – | > 100 | > 100 | > 100 | – |
| O=C1Nc2ccc(Br)cc2C1=Nc1cccnc1 | – | 40 | – | > 100 | – | > 100 | – | 44.7 | – | 57.4 | – | – | 87.1 | – | > 100 | – | 29.7 | 35 | > 100 | – |
| N#C/C(=C\c1ccsc1)c1nc2ccccc2o1 | > 100 | > 100 | 31.5 | > 100 | 24.5 | 65.5 | 8.4 | > 100 | – | 26.3 | 39 | > 100 | > 100 | > 100 | > 100 | 46.4 | > 100 | > 100 | > 100 | 61.6 |
| O=C1OCC2=C1C(c1cccc(Cl)c1)c1cc3c(cc1N2CCO)OCCO3 (configuration not stated) | 0.157 | 2.91 | 0.0403 | 3.25 | 0.0419 | 39.3 | 0.064 | 5.5 | 0.112 | > 100 | 0.0971 | 0.0631 | 0.373 | 0.0747 | > 100 | 0.0736 | > 69.4 | > 70 | 0.651 | 0.0367 |
| NCCCC[C@@H]1NC(=O)[C@H]2CCCN2C(=O)[C@H](Cc2ccccc2)CNC(=O)[C@H](Cc2ccccc2)NC1=O | > 37.5 | > 37.5 | > 37.5 | > 37.5 | > 37.5 | > 37.5 | > 37.5 | > 37.5 | – | – | > 37.5 | > 37.5 | > 37.5 | > 37.5 | > 37.5 | > 37.5 | > 37.5 | > 37.5 | > 37.5 | > 37.5 |
| COc1cc(OC)c(C/C=C/c2ccccc2)cc1O | – | 29.8 | – | – | – | 33.9 | – | 32.2 | – | 51.6 | – | – | 31.4 | – | 29.3 | – | 29.6 | 29 | 50.7 | – |
| CC(C)CCCC(C)[C@H]1CCC2[C@@H]3CCC4Cc5nc6c(nc5C[C@]4(C)C3CC[C@@]21C)CC1CC[C@@H]2C(CC[C@@]3(C)C2CC[C@@H]3C(C)CCCC(C)C)[C@@]1(C)C6 (some centres not stated) | – | – | – | > 100 | – | > 100 | – | > 100 | – | > 100 | – | – | > 100 | – | > 100 | – | > 100 | > 100 | > 100 | – |
| Cc1cc([N+](=O)[O-])c(NS(=O)(=O)c2cccc(C(=O)O)c2)cc1-c1cccnc1 | > 100 | > 100 | > 100 | > 100 | > 100 | > 100 | > 100 | > 100 | > 100 | > 100 | > 100 | > 100 | > 100 | > 100 | > 100 | > 100 | > 100 | > 100 | > 100 | > 100 |
| O=C1C(Nc2ccc(Cl)cc2)=C(I)C(=O)c2ncccc21 | 1.77 | 3.74 | 6.79 | 19.6 | 1.31 | 3.09 | 0.91 | 2.25 | 0.784 | 5.88 | 1.32 | 2.01 | 5.37 | 1.61 | 3.23 | 0.473 | 1.74 | 3.12 | 2.79 | 1.33 |
| CC1=C(C(=O)Nc2ccc3n[nH]c(C)c3c2)C(c2ccc(C(F)(F)F)cc2)CC(=O)N1 (configuration not stated) | > 25 | > 25 | 16.4 | > 25 | 1.24 | > 18.8 | > 25 | > 25 | 11.8 | > 25 | 7.64 | > 25 | > 25 | > 25 | > 25 | 3.91 | > 25 | > 25 | > 19.1 | 16 |
| CC1(C)C2CCC13C(=O)C1OC3(C2)C2C(=O)c3ccccc3C(=O)C12 (configuration not stated) | > 100 | > 100 | – | – | > 100 | > 100 | > 100 | > 100 | 97 | > 100 | > 100 | 12.1 | > 100 | > 100 | > 100 | > 100 | > 100 | – | > 100 | – |
| COC(C(=O)NN)c1ccccc1 (configuration not stated) | – | > 100 | – | > 100 | – | > 100 | – | > 100 | – | – | – | – | > 100 | – | > 100 | – | > 100 | > 100 | – | – |
